According to ChEMBL document CHEMBL2057176, “Synthesis and in vitro evaluation of [18F](R)-FEPAQ: a potential PET ligand for VEGFR2” (Bioorg Med Chem Lett, 2012):
The source made the active and inactive calls. The rule behind the calls is not given here.

Legend:
[1] = target: T1, Vascular endothelial growth factor receptor 2 (Homo sapiens, UniProt P35968); assay: Binding affinity to VEGFR2 in isolated human glioblastoma at 0.18 nM after 60 mins by phosphor image autoradiographic analysis in presence of ZM-323881; conditions: tested as the 18F-labelled form
T1 sequence (P35968 whole entry): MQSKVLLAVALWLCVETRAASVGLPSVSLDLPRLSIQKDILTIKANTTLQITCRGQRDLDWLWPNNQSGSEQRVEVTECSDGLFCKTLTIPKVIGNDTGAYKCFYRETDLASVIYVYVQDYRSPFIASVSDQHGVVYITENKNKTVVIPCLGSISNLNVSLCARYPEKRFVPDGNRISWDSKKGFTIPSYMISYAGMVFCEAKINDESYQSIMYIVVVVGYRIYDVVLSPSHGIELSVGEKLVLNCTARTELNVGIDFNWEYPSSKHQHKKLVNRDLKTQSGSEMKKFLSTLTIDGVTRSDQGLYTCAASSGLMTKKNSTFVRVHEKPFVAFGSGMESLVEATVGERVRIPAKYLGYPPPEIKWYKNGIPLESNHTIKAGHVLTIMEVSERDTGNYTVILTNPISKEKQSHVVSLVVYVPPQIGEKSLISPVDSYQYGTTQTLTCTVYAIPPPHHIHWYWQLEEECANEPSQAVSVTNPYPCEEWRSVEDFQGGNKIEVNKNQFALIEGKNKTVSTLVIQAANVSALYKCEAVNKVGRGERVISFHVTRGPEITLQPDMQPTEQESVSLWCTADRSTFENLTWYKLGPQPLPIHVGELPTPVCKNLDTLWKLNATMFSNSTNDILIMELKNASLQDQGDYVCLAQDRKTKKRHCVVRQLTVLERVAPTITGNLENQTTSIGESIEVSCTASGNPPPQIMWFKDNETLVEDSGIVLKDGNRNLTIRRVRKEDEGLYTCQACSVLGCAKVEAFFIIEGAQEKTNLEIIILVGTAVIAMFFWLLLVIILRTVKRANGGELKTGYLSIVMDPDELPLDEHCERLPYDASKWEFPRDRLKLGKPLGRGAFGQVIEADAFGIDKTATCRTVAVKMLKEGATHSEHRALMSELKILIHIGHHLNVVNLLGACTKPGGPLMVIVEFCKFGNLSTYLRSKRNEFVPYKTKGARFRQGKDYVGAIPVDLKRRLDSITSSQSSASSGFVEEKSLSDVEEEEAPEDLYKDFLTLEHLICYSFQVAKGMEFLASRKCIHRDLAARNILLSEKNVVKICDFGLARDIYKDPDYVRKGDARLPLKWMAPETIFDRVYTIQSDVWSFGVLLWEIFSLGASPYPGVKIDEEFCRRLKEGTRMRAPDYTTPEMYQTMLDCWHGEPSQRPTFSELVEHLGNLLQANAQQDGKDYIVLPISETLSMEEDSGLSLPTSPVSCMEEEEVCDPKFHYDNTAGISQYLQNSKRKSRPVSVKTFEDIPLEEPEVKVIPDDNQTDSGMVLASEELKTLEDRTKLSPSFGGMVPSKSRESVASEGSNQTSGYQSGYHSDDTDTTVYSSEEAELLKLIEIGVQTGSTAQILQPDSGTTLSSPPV

[2] = target: T1, Vascular endothelial growth factor receptor 2; assay: Inhibition of human VEGFR2 by fluorescence-based electrophoretic mobility-shift assay
[3] = target: T1, Vascular endothelial growth factor receptor 2; assay: Binding affinity to VEGFR2 in isolated human glioblastoma at 0.18 nM after 60 mins by phosphor image autoradiographic analysis; conditions: tested as the 18F-labelled form
[4] = target: T1, Vascular endothelial growth factor receptor 2; assay: Binding affinity to VEGFR2 in isolated human glioblastoma at 0.18 nM after 60 mins by phosphor image autoradiographic analysis in presence of (R)-PAQ; conditions: tested as the 18F-labelled form

In the case of `COc1cc2c(Nc3ccc(Br)cc3F)ncnc2cc1OC[C@@H]1CCCN(CCF)C1`, the Activity [1] is reported as “inactive”, the IC50 [2] is reported as 40 nM and the Activity [3] is reported as “Active”. The Activity [4] was “inactive”.
